Assay results: US12257243B2, “5-hydroxy-7-oxabicyclo[2.2.1]heptane-2-carboxamide derivatives for inducing chondrogenesis for treating joint damage” (NOVARTIS AG, priority 2018, dated 2025)
Like-named read-outs stand apart in the source and are kept apart here.

Tested on: ALP in normal human articular chondrocytes (NHACs)
Test: Alkaline Phosphatase (ALP) activity assay (staining and quantitation) in NHACs, prevention of chondrocyte hypertrophy
Type: cell-based
Conditions: human IL-1 beta 10 ng/mL, 12 days; for IC50: Fast Blue RR staining, high content imaging, read-out: ALP in NHAC IC50; for Emax / ALP in NHAC (% Efficacy): value in parentheses; for Emax: read-out: ALP in NHAC (% Efficacy)
Method: The compounds of the present invention were evaluated in the Alkaline Phosphatase (ALP) activity assay to determine the ability of the compounds to prevent chondrocyte hypertrophy in normal human articular chondrocytes (NHACs).
Normal human articular chondrocytes (NHACs) were purchased from PromoCell (Heidelberg, Germany) and grown in Chondrocyte Growth Medium (CGM; Lonza, Walkersville, Md.).
NHACs were expanded in Chondrocyte Growth Medium (CGM) from Lonza until they reached a 60-80% confluency. To initiate differentiation, 7,500 cells were plated/well with indicated test compound dose in 384-well Cell Carrier Ultra plates (Perkin Elmer) with DMEM (SH30022—HyClone) containing 10% FBS (35-015-CV—Corning), 1% Pen/Strep antibiotics (SV30010—HyClone), and 1% Normocin (50 mg/mL—InvivoGen). Cells with test compounds were incubated at 37° C., 5% CO2 for 5 hours and then added human IL-1 beta (AF-200-1B—Peprotech) to each well at a final concentration of 10 ng/mL and incubated at 37° C., 5% CO2 for 12 days.
To detect the presence of hypertrophic cells, NHACs were fixed with 4% paraformaldehyde and Hoechst 33342 (Invitrogen) dye for 30 minutes, rinsed in PBS, then stained with Fast Blue RR Salt (F0500—Sigma) with Naphthol AS-MX Phosphate Alkaline Solution, 0.25% (855—Sigma-Aldrich).
The staining was imaged by fluorescent microscopy, using the 561 nm wavelength, and/or quantified by high content imaging with the Image press Confocal (Molecular Devices, Sunnyvale, Calif.). Data analyses were performed with a customized multiwavelength cell-scoring application.

SMILES: COc1cc([C@H]2[C@H]3O[C@H](C[C@@H]3O)[C@@H]2C(=O)Nc2cc(C)cc(C(F)(F)F)c2)ccn1 (racemic) [Example 69, rac-(1R,2R,3S,4R,5S)-5-hydroxy-3-(2-methoxypyridin-4-yl)-N-(3-methyl-5-(trifluoromethylphenyl)-7-oxabicyclo[2.2.1]heptane-2-carboxamide]
- IC50 (Chondrocyte, 288 h): 25 µM
- Emax (Chondrocyte, 288 h): 29%

SMILES: N#Cc1cc(NC(=O)[C@@H]2[C@@H](c3cccc(C(F)(F)F)c3)[C@H]3O[C@@H]2C[C@@H]3O)cc(C(F)(F)F)c1 (racemic) [Example 47, rac-(1R,2R,3S,4R,5S)—N-(3-cyano-5-(trifluoromethyl)phenyl)-5-hydroxy-3-(3-(trifluoromethyl)phenyl)-7-oxabicyclo[2.2.1]heptane-2-carboxamide]
- IC50 (Chondrocyte, 288 h): 5.5 µM
- Emax (Chondrocyte, 288 h): 87%

SMILES: Cn1cc([C@H]2[C@H]3O[C@H](C[C@@H]3O)[C@@H]2C(=O)Nc2cc(C(F)(F)F)ccc2C#N)c(C(F)(F)F)n1 (single isomer, unassigned) [Example 49b, (1R,2R,3S,4R,5N-(2-cyano-5-(trifluoromethyl)phenyl)-5-hydroxy-3-(1-methyl-3-(trifluoromethyl)-1H-pyrazol-4-yl)-7-oxabicyclo[2.2.1]heptane-2-carboxamide or (1S,2S,3R,4S,5R)—N-(2-cyano-5-(trifluoromethyl)phenyl)-5-hydroxy-3-(1-methyl-3-(trifluoromethyl)-1H-pyrazol-4-yl)-7-oxabicyclo[2.2.1]heptane-2-carboxamide]
- IC50: 23 µM
- ALP in NHAC (% Efficacy): 54%

SMILES: Cn1nc(C(F)(F)F)cc1[C@H]1[C@H]2O[C@H](C[C@@H]2O)[C@@H]1C(=O)Nc1ccc(C(F)(F)F)cc1 (racemic) [Example 62, rac-(1R,2R,3S,4R,5S)-5-hydroxy-3-(1-methyl-3-(trifluoromethyl)-1H-pyrazol-5-yl)-N-(4-(trifluoromethyl)phenyl)-7-oxabicyclo[2.2.1]heptane-2-carboxamide]
- IC50 (Chondrocyte, 288 h): 16 µM
- Emax (Chondrocyte, 288 h): 73%

SMILES: Cc1cc(NC(=O)[C@@H]2[C@@H](c3cccc(C(F)(F)F)c3)[C@H]3O[C@@H]2C[C@@H]3O)cc(C(F)(F)F)c1 (racemic) [Example 13, rac-(1R,2R,3S,4R,5S)-5-hydroxy-N-(3-methyl-5-(trifluoromethyl)phenyl)-3-(3-(trifluoromethyl)phenyl)-7-oxabicyclo[2.2.1]heptane-2-carboxamide]
- IC50 (Chondrocyte, 288 h): 11 µM
- Emax (Chondrocyte, 288 h): 105%

SMILES: Cc1ccc(C(F)(F)F)cc1NC(=O)[C@@H]1[C@@H](c2cn(C)nc2C(F)(F)F)[C@H]2O[C@@H]1C[C@@H]2O (racemic) [Example 54, rac-(1R,2R,3S,4R,5S)-5-hydroxy-3-(1-methyl-3-(trifluoromethyl)-1H-pyrazol-4-yl)-N-(2-methyl-5-(trifluoromethyl)phenyl)-7-oxabicyclo[2.2.1]heptane-2-carboxamide]
- IC50 (Chondrocyte, 288 h): 4.1 µM
- Emax (Chondrocyte, 288 h): 52%

SMILES: COc1cc([C@@H]2[C@@H]3O[C@@H](C[C@H]3O)[C@H]2C(=O)Nc2cc(C(F)(F)F)ccc2C#N)ccn1 (single isomer, unassigned) [Example 78b, (1R,2R,3S,4R,5)-N-(2-cyano-5-(trifluoromethyl)phenyl)-5-hydroxy-3-(2-methoxypyridin-4-yl)-7-oxabicyclo[2.2.1]heptane-2-carboxamide or (1S,2S,3R,4S,5R)—N-(2-cyano-5-(trifluoromethyl)phenyl)-5-hydroxy-3-(2-methoxypyridin-4-yl)-7-oxabicyclo[2.2.1]heptane-2-carboxamide]
- IC50: 1.4 µM
- ALP in NHAC (% Efficacy): 88%

SMILES: O=C(Nc1ccc(F)c(C(F)(F)F)c1)[C@@H]1[C@@H](c2cccc(C(F)(F)F)c2)[C@H]2O[C@@H]1C[C@@H]2O (racemic) [Example 16, rac-(1R,2R,3S,4R,5S)—N-(4-fluoro-3-(trifluoromethyl)phen)-5-hydroxy-3-(3-(trifluoromethyl)phenyl)-7-oxabicyclo[2.2.1]heptane-2-carboxamide]
- IC50 (Chondrocyte, 288 h): 12 µM
- Emax (Chondrocyte, 288 h): 105%
